In general, IC50 refers to the concentration that inhibits the measured activity by half. Low values mean higher potency, high ones lower potency.

Entries after “also recorded” stand apart in the source; their conditions may differ.

Results on one compound are retold here after PMC5059851, “Inhibition of Hedgehog-dependent tumors and cancer stem cells by a newly identified naturally occurring chemotype” (Cell Death & Disease, 2016).

In assay [1] the test system is human medulloblastoma DAOY cells. In words: Trypan blue growth count of DAOY cells. The class given is cell-based. The settings on record: versus Cyclopamine, Vismodegib, LDE-225. The procedure: (§1) After the indicated times, a trypan blue count was performed to determine the growth rate. […] Results were normalized to endogenous control (β-actin and HPRT).
(§2) Cell proliferation was evaluated by BrdU detection (Roche, Welwyn Garden City, UK). Briefly, after the BrdU pulse (24 h for GCPs) cells were fixed with 4% paraformaldehyde and permeabilized with 0.2% Triton X-100, and BrdU detection was performed according to the manufacturer's instructions. Nuclei were counterstained with Hoechst reagent. At least 500 nuclei were counted in triplicate, and the number of BrdU-positive nuclei was recorded. To determine the growth rate of viable cells, a trypan blue count was performed after a treatment period of 24–48–72 h with studied compound.

The test system of assay [2] is murine Ptch1^+/− MB stem-like cells. In words: MB stem cells neurosphere-forming assay. The format is cell-based, mouse. The settings on record: 7 days of treatment, increasing concentrations. The procedure:
Figure 5 Compound 12 inhibition of Hh-dependent MB tumor cell growth. […] (a and b) After the indicated times, a trypan blue count was performed to determine the growth rate of viable cells. (c) Gli1 mRNA expression levels were determined by qRT-PCR normalized to endogenous control (β2-microglobulin and HPRT). (d–f) Compound 12 inhibits MB-SCs self-renewal. (d) Suspension of single MB-SCs isolated from Ptch1^+/− mice were cultured in stem cell medium to allow the formation of primary neurospheres. Primary neurospheres were dissociated and treated with increasing concentrations of compound 12, Cyclopamine or DMSO only. After 7 days of treatment, the number of secondary neurospheres derived from a known number of single cells was counted. The self-renewal MB-SCs' capability is expressed as percentage of neurosphere-forming cells. (e) Representative bright-field images of tumor neurospheres after compound 12 or Cyclopamine treatment are also shown. (f) MB-SCs isolated from Ptch1^+/− mice MBs were treated for 48 h with compound 12 or DMSO only. qRT-PCR analysis show Hh, proliferation and stemness target mRNA. For qRT-PCR, results were normalized to endogenous control (β2-microglobulin and HPRT). […]
Cell proliferation was evaluated by BrdU detection (Roche, Welwyn Garden City, UK). […] At least 500 nuclei were counted in triplicate, and the number of BrdU-positive nuclei was recorded. […]

Assay [3] has as its system Gli1 mRNA. In words: Gli1 mRNA (qRT-PCR) in ASZ001 BCC cells. The settings on record: after drug treatment. The class given is cell-based, mouse. The procedure:
After the indicated times, a trypan blue count was performed to determine the growth rate.
(§3) Total RNA was isolated with Trizol (Invitrogen/Life Technologies, Carlsbad, CA, USA) and reverse transcribed with SensiFAST cDNA Synthesis Kit (Bioline Reagents Limited, London, UK). Quantitative real-time PCR (Q-PCR) analysis of Gli1, Gli2, Ptch1, Bmp2, Pfkfb3, CycD1, CycD2, Pcna, Oct4, Nanog, β-2 microglobulin, β-actin and HPRT mRNA expression was performed on each cDNA sample using the VIIA7 Real Time PCR System employing Assay-on-Demand Reagents (Life Technologies).
(In qPCR the cycle at which signal appears reflects the starting amount.)

Another assay concerns WNT/β-Catenin pathway. In words: WNT/β-Catenin luciferase reporter assay (Top Flash-luciferase and β-Catenin) in MEFs WT. To be noted: increasing concentrations, 24 h. The format is cell-based, mouse. The procedure:
Figure 2 Compound 12 inhibits Hh signaling without affecting AP1/Jun and WNT/β-Catenin pathways. (a) The graphs show the Hh target genes expression levels in Ptch1^−/− MEFs treated for 48 h with 12 or DMSO as control. mRNA levels were determined by quantitative real-time PCR (qRT-PCR) normalized to endogenous control (β2-microglobulin and HPRT). Pfkfb3 gene was used as negative control. *P<0.05 versus CTR. (b and c) AP1/Jun and WNT/β-Catenin pathways activity were assayed in MEFs WT transfected with MMP1-luciferase reporter and c-Jun (b) or Top Flash-luciferase reporter and β-Catenin (c), respectively, in the presence or absence of increasing concentrations of compound 12. Treatment time was 24 h, and normalization was against Renilla luciferase.
(In general: Reporter assays use an easily measured gene product as a stand-in for the process of interest.)

The next assay deals with ASZ001 BCC allografts. In words: ASZ001 BCC allograft in NOD/SCID mice. The settings on record: 50 mg/kg s.c. every second day, versus vehicle. The format is in vivo, mouse.
A further assay concerns the target T1, murine Smo WT (Mus musculus, UniProt P56726).
T1 construct: Flag; expressed in transfected cells; host or cells: HEK293T
In words: Bodipy-Cyclopamine (BC) binding assay, HEK293T cells transfected with mouse Smo WT. The procedure:
(§4) Cells were washed in PBS supplemented with 0.5% fetal bovine serum, fixed in 4% paraformaldehyde in phosphate-buffered saline (PBS) for 10 min, and incubated for 2 h at 37 °C both in the same medium supplemented with Bodipy-Cyclopamine (5 nM) and the studied compounds. The cells were permeabilized with Triton X100 (Sigma) 0.2%. Dako Fluorescent mounting (Dako, Carpinteria, CA, USA) was used as mounting medium and Hoechst reagent for staining of the cell nuclei. Bodipy (green) and Hoechst (blue) signals were analyzed in three to four representative fields per coverslip (× 20 magnification, 1000 cells/field). Data were expressed as percentage of BC incorporation observed with BC alone.[95]
BC binding (green) is visualized using fluorescence microscopy in a representative field (a). […] Quantitative data are the average BC intensity from five independent fluorescence microscopy images.

The target in the next assay is T2, human Smo WT (Homo sapiens, UniProt Q99835).
T2 construct: Myc-DDK; expressed in transfected cells; host or cells: HEK293T
In words: Bodipy-Cyclopamine (BC) binding assay, HEK293T cells transfected with human Smo WT. The settings on record: BC (5 nM) displacement, transiently transfected 293T cells. The procedure: as §4

The test system of assay [4] is Gli1 mRNA. In words: Gli1 mRNA (qRT-PCR) in DAOY cells. The format is cell-based, human. The settings on record: after treatment. The procedure: as §1, §3
The subject of assay [5] is human prostate carcinoma epithelial 22Rv1 cells. In words: Trypan blue growth count of 22Rv1 cells. The settings on record: versus Cyclopamine, Vismodegib, LDE-225. The format is cell-based. The procedure:
as §1, §2

T1 sequence (P56726 33-793): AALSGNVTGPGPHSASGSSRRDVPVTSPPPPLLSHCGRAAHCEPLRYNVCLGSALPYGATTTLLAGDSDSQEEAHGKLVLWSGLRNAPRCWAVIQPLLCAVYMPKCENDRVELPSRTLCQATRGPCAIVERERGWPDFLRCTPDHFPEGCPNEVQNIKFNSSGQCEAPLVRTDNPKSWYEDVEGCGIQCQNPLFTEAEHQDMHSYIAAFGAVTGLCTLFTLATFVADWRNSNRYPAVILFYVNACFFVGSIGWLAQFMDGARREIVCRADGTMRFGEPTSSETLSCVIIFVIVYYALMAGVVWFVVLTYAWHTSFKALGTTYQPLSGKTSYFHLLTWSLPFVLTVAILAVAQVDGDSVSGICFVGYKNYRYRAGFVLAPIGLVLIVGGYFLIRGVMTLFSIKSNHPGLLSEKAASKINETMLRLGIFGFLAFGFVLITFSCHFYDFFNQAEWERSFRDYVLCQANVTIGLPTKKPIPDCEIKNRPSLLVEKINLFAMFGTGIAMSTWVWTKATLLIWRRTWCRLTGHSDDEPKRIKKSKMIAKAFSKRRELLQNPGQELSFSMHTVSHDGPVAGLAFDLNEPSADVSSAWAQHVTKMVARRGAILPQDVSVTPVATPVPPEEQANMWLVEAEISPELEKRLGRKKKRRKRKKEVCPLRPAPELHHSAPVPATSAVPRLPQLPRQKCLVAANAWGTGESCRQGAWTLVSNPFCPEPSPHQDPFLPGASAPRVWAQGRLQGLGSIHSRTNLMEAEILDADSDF
T2 sequence (Q99835 28-787): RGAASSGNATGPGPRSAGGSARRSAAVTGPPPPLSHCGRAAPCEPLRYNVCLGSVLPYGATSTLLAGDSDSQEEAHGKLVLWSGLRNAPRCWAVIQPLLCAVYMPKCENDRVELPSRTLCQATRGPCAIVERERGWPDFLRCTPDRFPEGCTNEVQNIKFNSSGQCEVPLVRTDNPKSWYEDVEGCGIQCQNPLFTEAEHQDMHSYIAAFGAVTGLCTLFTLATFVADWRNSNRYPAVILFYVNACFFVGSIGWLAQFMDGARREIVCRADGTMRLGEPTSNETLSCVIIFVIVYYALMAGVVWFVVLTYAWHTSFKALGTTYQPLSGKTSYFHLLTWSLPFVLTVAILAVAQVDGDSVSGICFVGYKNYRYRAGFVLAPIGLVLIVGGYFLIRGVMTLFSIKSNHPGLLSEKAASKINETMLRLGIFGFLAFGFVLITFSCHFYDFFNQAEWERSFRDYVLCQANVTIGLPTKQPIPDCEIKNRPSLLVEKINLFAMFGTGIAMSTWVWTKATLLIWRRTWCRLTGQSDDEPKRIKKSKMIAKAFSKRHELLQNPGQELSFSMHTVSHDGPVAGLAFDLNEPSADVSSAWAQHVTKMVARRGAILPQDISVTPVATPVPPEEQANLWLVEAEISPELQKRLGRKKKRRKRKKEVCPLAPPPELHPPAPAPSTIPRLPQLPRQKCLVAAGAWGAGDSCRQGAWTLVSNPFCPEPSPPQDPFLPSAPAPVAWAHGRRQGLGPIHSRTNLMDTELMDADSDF

On to `COc1ccc(C=CC(=O)c2cc(OC)c(OC)cc2OC)cc1OC` [Compound 12, 3-(3,4-dimethoxy-phenyl)-1-(2,4,5-trimethoxy-phenyl)-2-propen-1-one], for which the “inhibition of DAOY cell proliferation” value in [1] is given as “higher activity than other Smo antagonists”. Also, in assay [2], the “clonogenic self-renewal ability (neurosphere formation)” value is “suppressed”. Further, in the assay on Gli1 mRNA [3], the “Gli1 mRNA levels in ASZ001 BCC cells” value is “decrease of Gli1 mRNA levels”. The “luciferase activity driven by Wnt/β-catenin signaling” value with WNT/β-Catenin pathway is “without affecting luciferase activity; also recorded: inactive”. In addition, the “tumor cell growth (tumor volume) in BCC allograft” value in the assay with ASZ001 BCC allografts (18 days) is given as “reduction of tumor cell growth”. In addition, the “percentage of Ki67 labeling in allograft tumors” value with ASZ001 BCC allografts is listed as “decreased percentage of Ki67 labeling”. Also, the IC50 amounted to 45.6 µM on murine Smo WT (BC (5 nM) displacement, transiently transfected 293T cells) and 24.5 µM at human Smo WT. For the same compound, the “inhibition of BC binding to murine Smo WT” value on murine Smo WT (HEK293T cells, various concentrations) is “significantly inhibited BC binding”. In the assay on Gli1 mRNA [4], the “Gli1 mRNA levels in DAOY cells” value is listed as “significant decrease of Gli1 mRNA levels”. Moreover, the “inhibition of 22Rv1 cell proliferation” value in assay [5] is reported as “higher activity than other Smo antagonists”.
